# Test results taken from ChEMBL document CHEMBL4610129, “Discovery of Novel Selective and Orally Bioavailable Phosphodiesterase-1 Inhibitors for the Efficient Treatment of Idiopathic Pulmonary Fibrosis” (J Med Chem, 2020).
# Calls of active or inactive are those of the source. No cut-off for these calls is given here.
# Assays:
# Homo sapiens [1] = species: Homo sapiens; assay: Anti-pulmonary fibrosis activity in human HLF assessed as reduction in TGF-beta-induced myofibroblast differentiation by measuring reduction in fibronectin protein expression incubated for 48 hrs by Western blot analysis; format: functional
# Rattus norvegicus [2] = assay: Anti-pulmonary fibrosis activity in Sprague-Dawley rat model of BLM-induced idiopathic pulmonary fibrosis assessed as reduction in peak inspiratory flow at 10 mg/kg, po dosed daily for 28 days by mka noninvasive pulmonary monitoring system based method; format: functional, organism-based
# Homo sapiens [3] = species: Homo sapiens; assay: Anti-pulmonary fibrosis activity in human HLF assessed as reduction in TGF-beta-induced myofibroblast differentiation by measuring reduction in fibronectin protein expression incubated for 48 hrs by immunofluorescence staining analysis; format: functional
# Cytochrome P450 1A2 = molecular target: T1, Cytochrome P450 1A2 (Homo sapiens, UniProt P05177); assay: Inhibition of human CYP1A2; format: ADME
# T1 sequence (P05177 whole entry): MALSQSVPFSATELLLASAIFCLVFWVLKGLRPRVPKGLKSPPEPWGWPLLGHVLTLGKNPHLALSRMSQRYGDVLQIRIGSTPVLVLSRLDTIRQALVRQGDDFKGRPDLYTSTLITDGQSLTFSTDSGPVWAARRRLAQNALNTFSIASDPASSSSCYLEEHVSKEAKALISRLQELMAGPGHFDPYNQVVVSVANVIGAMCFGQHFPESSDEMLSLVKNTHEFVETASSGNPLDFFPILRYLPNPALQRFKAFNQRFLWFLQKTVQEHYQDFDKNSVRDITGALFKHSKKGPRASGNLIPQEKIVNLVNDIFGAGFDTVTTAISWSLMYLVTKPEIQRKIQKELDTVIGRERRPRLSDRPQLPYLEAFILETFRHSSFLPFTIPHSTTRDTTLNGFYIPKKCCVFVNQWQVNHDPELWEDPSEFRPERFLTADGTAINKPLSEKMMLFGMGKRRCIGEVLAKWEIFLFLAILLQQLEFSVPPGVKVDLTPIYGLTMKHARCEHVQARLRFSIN
# [4] = molecular target: 3',5'-cyclic-AMP phosphodiesterase 4D (Homo sapiens, UniProt Q08499); assay: Inhibition of PDE4D2 (86 to 413 residues) (unknown origin) using [3H]-cAMP substrate incubated for 15 mins by liquid scintillation counting method relative to control
# [5] = Half life in human liver microsomes; format: ADME, Microsome
# [6] = Cmax in Sprague-Dawley rat at 5 mg/kg, po; format: ADME, organism-based; design: dose 5 mg/kg, route oral; details: in vivo
# Rattus norvegicus [7] = assay: Anti-pulmonary fibrosis activity in Sprague-Dawley rat model of BLM-induced idiopathic pulmonary fibrosis assessed as inhibition of collagen deposition at 10 mg/kg, po dosed daily for 28 days by Masson staining based assay; format: functional, organism-based
# [8] = MRT (0 to t) in Sprague-Dawley rat at 2.5 mg/kg, iv; format: ADME, organism-based; details: in vivo
# 3',5'-cyclic-AMP phosphodiesterase 4D, sequence (Q08499 whole entry, the tested form may be a part): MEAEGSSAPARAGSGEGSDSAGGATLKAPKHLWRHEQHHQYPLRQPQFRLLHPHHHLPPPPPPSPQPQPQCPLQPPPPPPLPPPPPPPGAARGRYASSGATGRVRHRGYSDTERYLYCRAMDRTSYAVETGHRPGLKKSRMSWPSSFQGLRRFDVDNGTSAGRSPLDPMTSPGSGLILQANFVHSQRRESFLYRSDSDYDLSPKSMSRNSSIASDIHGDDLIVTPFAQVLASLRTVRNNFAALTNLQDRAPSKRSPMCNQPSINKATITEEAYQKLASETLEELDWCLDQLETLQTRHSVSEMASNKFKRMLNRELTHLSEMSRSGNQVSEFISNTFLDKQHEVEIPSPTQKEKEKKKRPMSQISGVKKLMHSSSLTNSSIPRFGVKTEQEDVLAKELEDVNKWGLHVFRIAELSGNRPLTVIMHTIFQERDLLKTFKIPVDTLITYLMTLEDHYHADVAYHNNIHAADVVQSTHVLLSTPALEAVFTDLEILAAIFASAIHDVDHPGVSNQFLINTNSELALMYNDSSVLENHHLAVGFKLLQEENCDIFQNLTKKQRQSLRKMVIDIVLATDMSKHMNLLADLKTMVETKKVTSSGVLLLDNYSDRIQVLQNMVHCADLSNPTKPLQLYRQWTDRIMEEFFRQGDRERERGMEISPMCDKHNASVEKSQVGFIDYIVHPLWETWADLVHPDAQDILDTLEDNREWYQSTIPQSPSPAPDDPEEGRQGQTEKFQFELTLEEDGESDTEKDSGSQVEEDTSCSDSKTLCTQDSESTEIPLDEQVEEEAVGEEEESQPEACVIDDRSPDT
smiles,measurement,setting,value
C[C@@H](Nc1nc2c(cnn2C(C)(C)C)c(=O)n1Cc1ccc(F)cc1)c1ccc(Cl)cc1,Activity,Homo sapiens [1],Dose-dependent effect
same,Activity,Rattus norvegicus [2],Active
same,Activity,Homo sapiens [3],Dose-dependent effect
same,IC50,Cytochrome P450 1A2,> 25000 nM
same,IC50,[4],699 nM
same,half-life,[5],0.262 h
same,Cmax,[6],169 ng/mL
same,Activity,Rattus norvegicus [7],Active
same,MRT last,[8],5.81 h
